Values quoted from earlier work, collected in patent publication US20230165871A1, “COMBINATION THERAPIES FOR INHIBITION OF POLO-LIKE KINASE 4” (UNIVERSITY HEALTH NETWORK, priority 2020, published 2023).

Experiments:
[1] = in vivo
[2] = tested on: cell line and patient-derived xenografts of breast and ovarian cancer; details: tolerable doses
cancer cell lines = details: via induction of apoptosis and cell cycle arrest with induction of aneuploidy
[3] = clinical

oral bioavailability [1]: orally bioavailable
Structure (SMILES): COc1ccc2c(c1)[C@]1(C[C@H]1c1ccc3c(/C=C/c4ccc(CN5C[C@@H](C)O[C@@H](C)C5)cc4)n[nH]c3c1)C(=O)N2 [Compound (I)]
anti-tumour effects in xenograft models [2]: potent anti-tumour effects at tolerable doses | anti-proliferative effects in cancer cell lines (cancer cell lines): potent anti-proliferative effects | major toxic effects which limit dose [3]: neutropenia, thrombocytopenia, fever, diarrhea and increased liver function tests
